Test results: US9765074B2, “Inhibitors of the renal outer medullary potassium channel” (Merck Sharp & Dohme Corp., priority 2013, dated 2017)

Molecular target: T1, hROMK (hKir1.1) (Homo sapiens, UniProt P48048)
T1 construct: expressed in transfected cells
T1 sequence (P48048 1-391): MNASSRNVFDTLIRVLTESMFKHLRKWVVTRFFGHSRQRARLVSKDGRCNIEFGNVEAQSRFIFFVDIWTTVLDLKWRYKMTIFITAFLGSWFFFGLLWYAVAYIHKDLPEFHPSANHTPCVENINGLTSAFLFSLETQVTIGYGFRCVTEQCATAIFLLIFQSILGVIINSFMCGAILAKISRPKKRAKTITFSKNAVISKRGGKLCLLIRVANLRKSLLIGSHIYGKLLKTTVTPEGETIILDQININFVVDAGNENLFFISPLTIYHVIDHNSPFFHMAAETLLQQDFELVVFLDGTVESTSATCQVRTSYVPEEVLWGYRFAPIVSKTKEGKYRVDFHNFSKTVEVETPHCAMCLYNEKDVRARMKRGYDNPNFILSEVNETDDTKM
Assay: Thallium Flux Assay (ROMK channel functional thallium flux, FLIPR-Tetra)
Assay type: cell-based
Details: HEK293 cells stably expressing hROMK (hKir1.1); 30 min compound incubation
Procedure, shortened: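 Thallium flux read by FluxOR fluorescence ([…]) for ~10 min after adding 3 mM Tl+/0.3 mM K+ final. Stable HEK-hKir1.1 cells were dye-loaded 90 min, exposed to compound 30 min at room temperature in ouabain/probenecid buffer; IC50 relative to a 3 μM control inhibitor.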

| IC50 | SMILES |
| --- | --- |
| 160 nM | CC1=C(N2CCC3(CCN(C[C@@H](O)c4ccnc(-n5cnnn5)c4)CC3)C2=O)COC1=O [Example 130, 8-{(2S)-2-hydroxy-2-[2-(1H-tetrazol-1-yl)pyridin-4-yl]ethyl}-2-(4-methyl-5-oxo-2,5-dihydrofuran-3-yl)-1-oxo-2-aza-8-azoniaspiro[4.5]decane] |
| 640 nM | CC1=C(N2CCC3(CCN(C[C@@H](O)c4cncc(-n5cnnn5)c4)CC3)C2=O)COC1=O [Example 132, 8-{(2S)-2-hydroxy-2-[5-(1H-tetrazol-1-yl)pyridin-3-yl]ethyl}-2-(4-methyl-5-oxo-2,5-dihydrofuran-3-yl)-1-oxo-2-aza-8-azoniaspiro[4.5]decane] |
| 50 nM | CC1=C(N2C=CC3(CCN(C[C@H](O)c4ccc(-n5cnnn5)nn4)CC3)C2=O)COC1=O [Example 146, 8-{(2S)-2-hydroxy-2-[6-(1H-tetrazol-1-yl)pyridazin-3-yl]ethyl}-2-(4-methyl-5-oxo-2,5-dihydrofuran-3-yl)-1-oxo-2-aza-8-azoniaspiro[4.5]dec-3-ene] |
| 100 nM | CC1=C(N2CCC3(CCN(C[C@@H](O)c4ncc(-n5cnnn5)cc4F)CC3)C2=O)COC1=O [Example 148, 8-{(2R)-2-[3-fluoro-5-(1H-tetrazol-1-yl)pyridin-2-yl]-2-hydroxyethyl}-2-(4-methyl-5-oxo-2,5-dihydrofuran-3-yl)-2,8-diazaspiro[4.5]decan-1-one] |
| 20 nM | COc1nc(-n2cnnn2)ccc1[C@H](O)CN1CCC2(CC1)CCN(C1=C(C)C(=O)OC1)C2=O [Example 150, 8-{(2S)-2-hydroxy-2-[2-methoxy-6-(1H-tetrazol-1-yl)pyridin-3-yl]ethyl}-2-(4-methyl-5-oxo-2,5-dihydrofuran-3-yl)-2,8-diazaspiro[4.5]decan-1-one] |
| 30 nM | O=C1C=C(N2C=CC3(CCN(C[C@H](O)c4ccc(-n5cnnn5)nc4)CC3)C2=O)CO1 [Example 151, 8-{(2R)-2-hydroxy-2-[6-(1H-tetrazol-1-yl)pyridin-3-yl]ethyl}-1-oxo-2-(5-oxo-2,5-dihydrofuran-3-yl)-2-aza-8-azoniaspiro[4.5]dec-3-ene] |
| 270 nM | O=C1C=C(N2C=CC3(CCN(C[C@H](O)c4cnc(-n5cnnn5)cn4)CC3)C2=O)CO1 [Example 152, 8-{(2S)-2-hydroxy-2-[5-(1H-tetrazol-1-yl)pyrazin-2-yl]ethyl}-1-oxo-2-(5-oxo-2,5-dihydrofuran-3-yl)-2-aza-8-azoniaspiro[4.5]dec-3-ene] |
| 30 nM | CC1=C(N2C=CC3(CCN(C[C@H](O)c4nnc(-n5cnnn5)cc4C)CC3)C2=O)COC1=O [Example 154, 8-{(2S)-2-hydroxy-2-[4-methyl-6-(1H-tetrazol-1-yl)pyridazin-3-yl]ethyl}-2-(4-methyl-5-oxo-2,5-dihydrofuran-3-yl)-1-oxo-2-aza-8-azoniaspiro[4.5]dec-3-ene] |
| 560 nM | CC1(O)CC2(CCN(C[C@H](O)c3ccc(-n4cnnn4)nn3)CC2)C(=O)N1C1=CC(=O)OC1 (stereo partly drawn) [Example 158, 3-hydroxy-8-{(2S)-2-hydroxy-2-[6-(1H-tetrazol-1-yl)pyridazin-3-yl]ethyl}-3-methyl-1-oxo-2-(5-oxo-2,5-dihydrofuran-3-yl)-2-aza-8-azoniaspiro[4.5]decane] |
| 40 nM | CC1(C)CC2(CCN(C[C@H](O)c3cnc(-n4cnnn4)cn3)CC2)C(=O)N1C1=CC(=O)OC1 [Example 164, 8-{(2S)-2-hydroxy-2-[5-(1H-tetrazol-1-yl)pyrazin-2-yl]ethyl}-3,3-dimethyl-1-oxo-2-(5-oxo-2,5-dihydrofuran-3-yl)-2-aza-8-azoniaspiro[4.5]decane] |
| 10 nM | O=C1C=C(N2C(=O)C3(CCN(C[C@H](O)c4cnc(-n5cnnn5)cn4)CC3)CC23CC3)CO1 [Example 167, 8-{(2S)-2-hydroxy-2-[5-(1H-tetrazol-1-yl)pyrazin-2-yl]ethyl}-12-(5-oxo-2,5-dihydrofuran-3-yl)-8,12-diazadispiro[2.1.5.2]dodecan-11-one] |
| 20 nM | CC1=CC2(CCN(C[C@H](O)c3ccc(-n4cnnn4)nc3)CC2)C(=O)N1C1=CC(=O)OC1 [Example 174, 8-{(2R)-2-hydroxy-2-[6-(1H-tetrazol-1-yl)pyridin-3-yl]ethyl}-3-methyl-2-(5-oxo-2,5-dihydrofuran-3-yl)-2,8-diazaspiro[4.5]dec-3-en-1-one] |
| 40 nM | CC1=CN(C2=C(C)C(=O)OC2)C(=O)C12CCN(C[C@H](O)c1ccc(-n3cnnn3)nc1)CC2 [Example 175, 8-{(2R)-2-hydroxy-2-[6-(1H-tetrazol-1-yl)pyridin-3-yl]ethyl}-4-methyl-2-(4-methyl-5-oxo-2,5-dihydrofuran-3-yl)-1-oxo-2-aza-8-azoniaspiro[4.5]dec-3-ene] |

Second part, the compound before the results:

| SMILES | IC50 |
| --- | --- |
| CC1=C(N2CCC3(CCN(C[C@H](O)c4ccnc(-n5cnnn5)c4)CC3)C2=O)COC1=O [Example 129, 8-{(2R)-2-hydroxy-2-[2-(1H-tetrazol-1-yl)pyridin-4-yl]ethyl}-2-(4-methyl-5-oxo-2,5-dihydrofuran-3-yl)-1-oxo-2-aza-8-azoniaspiro[4.5]decane] | 140 nM |
| CC1=C(N2CCC3(CCN(C[C@H](O)c4cncc(-n5cnnn5)c4)CC3)C2=O)COC1=O [Example 131, 8-{(2R)-2-hydroxy-2-[5-(1H-tetrazol-1-yl)pyridin-3-yl]ethyl}-2-(4-methyl-5-oxo-2,5-dihydrofuran-3-yl)-1-oxo-2-aza-8-azoniaspiro[4.5]decane] | 680 nM |
| CC1=C(N2CCC3(CCN(C[C@@H](O)c4c(F)cc(-n5cnnn5)cc4F)CC3)C2=O)COC1=O [Example 143, 8-{(2S)-2-[2,6-difluoro-4-(1H-tetrazol-1-yl)phenyl]-2-hydroxyethyl}-2-(4-methyl-5-oxo-2,5-dihydrofuran-3-yl)-1-oxo-2-aza-8-azoniaspiro[4.5]decane] | 190 nM |
| COc1nc(-n2cnnn2)ccc1[C@@H](O)CN1CCC2(CC1)CCN(C1=C(C)C(=O)OC1)C2=O [Example 149, 8-{(2R)-2-hydroxy-2-[2-methoxy-6-(1H-tetrazol-1-yl)pyridin-3-yl]ethyl}-2-(4-methyl-5-oxo-2,5-dihydrofuran-3-yl)-2,8-diazaspiro[4.5]decan-1-one] | 20 nM |
| CC1=C(N2C=CC3(CCN(C[C@@H](O)c4nnc(-n5cnnn5)cc4C)CC3)C2=O)COC1=O [Example 153, 8-{(2R)-2-hydroxy-2-[4-methyl-6-(1H-tetrazol-1-yl)pyridazin-3-yl]ethyl}-2-(4-methyl-5-oxo-2,5-dihydrofuran-3-yl)-1-oxo-2-aza-8-azoniaspiro[4.5]dec-3-ene] | 40 nM |
| O=C1C=C(N2C=CC3(CCN(C[C@@H](O)c4ccc(-n5cnnn5)nc4)CC3)C2=O)CO1 [Example 155, 8-{(2S)-2-hydroxy-2-[6-(1H-tetrazol-1-yl)pyridin-3-yl]ethyl}-1-oxo-2-(5-oxo-2,5-dihydrofuran-3-yl)-2-aza-8-azoniaspiro[4.5]dec-3-ene] | 60 nM |
| CC1=C(N2C=CC3(CCN(C[C@@H](O)c4ccc(-n5cnnn5)nc4)CC3)C2=O)COC1=O [Example 156, 8-{(2S)-2-hydroxy-2-[6-(1H-tetrazol-1-yl)pyridin-3-yl]ethyl}-2-(4-methyl-5-oxo-2,5-dihydrofuran-3-yl)-1-oxo-2-aza-8-azoniaspiro[4.5]dec-3-ene] | 20 nM |
| CC1(O)CC2(CCN(C[C@H](O)c3ccc(-n4cnnn4)nc3)CC2)C(=O)N1C1=CC(=O)OC1 (stereo partly drawn) [Example 157, 3-hydroxy-8-{(2R)-2-hydroxy-2-[6-(1H-tetrazol-1-yl)pyridin-3-yl]ethyl}-3-methyl-1-oxo-2-(5-oxo-2,5-dihydrofuran-3-yl)-2-aza-8-azoniaspiro[4.5]decane] | 70 nM |
| CC1=C(N2C=CC3(CCN(C[C@H](O)c4cnc(-n5cnnn5)cn4)CC3)C2=O)COC1=O [Example 163, 8-{(2S)-2-hydroxy-2-[5-(1H-tetrazol-1-yl)pyrazin-2-yl]ethyl}-2-(4-methyl-5-oxo-2,5-dihydrofuran-3-yl)-1-oxo-2-aza-8-azoniaspiro[4.5]dec-3-ene] | 100 nM |
| CC1=CN(C2=C(C)C(=O)OC2)C(=O)C12CCN(C[C@H](O)c1ccc(-n3cnnn3)nn1)CC2 [Example 166, 8-{(2S)-2-hydroxy-2-[6-(1H-tetrazol-1-yl)pyridazin-3-yl]ethyl}-4-methyl-2-(4-methyl-5-oxo-2,5-dihydrofuran-3-yl)-1-oxo-2-aza-8-azoniaspiro[4.5]dec-3-ene] | 100 nM |
| CC1=C(N2CCC3(CC4COCC(C3)N4C[C@H](O)c3ccc(-n4cnnn4)nc3)C2=O)COC1=O (stereo partly drawn) [Example 180, 9-{(2R)-2-hydroxy-2-[6-(1H-tetrazol-1-yl)pyridin-3-yl]ethyl}-1′-(4-methyl-5-oxo-2,5-dihydrofuran-3-yl)-2′H-spiro[7-oxa-9-azabicyclo[3.3.1]nonane-3,3′-pyrrolidin]-2′-one] | 40 nM |
| CC1=C(N2CCC3(CC4COCC(C3)N4C[C@H](O)c3cnc(-n4cnnn4)cn3)C2=O)COC1=O (stereo partly drawn) [Example 181, 9-{(2S)-2-hydroxy-2-[5-(1H-tetrazol-1-yl)pyrazin-2-yl]ethyl}-1′-(4-methyl-5-oxo-2,5-dihydrofuran-3-yl)-2′H-spiro[7-oxa-9-azabicyclo[3.3.1]nonane-3,3′-pyrrolidin]-2′-one] | 150 nM |
| COCC1=C(N2CCC3(CCN(C[C@H](O)c4ccc(-n5cnnn5)nc4)CC3)C2=O)COC1=O [Example 182, 8-{(2R)-2-hydroxy-2-[6-(1H-tetrazol-1-yl)pyridin-3-yl]ethyl}-2-[4-(methoxymethyl)-5-oxo-2,5-dihydrofuran-3-yl]-2,8-diazaspiro[4.5]decan-1-one] | 50 nM |
